Results on three molecules are retold here after ChEMBL document CHEMBL2029226, “Molecular Insights into Human Monoamine Oxidase B Inhibition by the Glitazone Anti-Diabetes Drugs” (ACS Med Chem Lett, 2012).

Activity calls are given as the source filed them. The calls are words filed in the database; no cut-off is given here.

The target in series [1] is Lysine-specific histone demethylase 1A (Homo sapiens) (UniProt O60341). In words: Inhibition of human histone demethylase LSD1 up to 100 uM.
For series [2], the target named is T1, Amine oxidase [flavin-containing] B (Rattus norvegicus, UniProt P19643).
T1 sequence (P19643 whole entry): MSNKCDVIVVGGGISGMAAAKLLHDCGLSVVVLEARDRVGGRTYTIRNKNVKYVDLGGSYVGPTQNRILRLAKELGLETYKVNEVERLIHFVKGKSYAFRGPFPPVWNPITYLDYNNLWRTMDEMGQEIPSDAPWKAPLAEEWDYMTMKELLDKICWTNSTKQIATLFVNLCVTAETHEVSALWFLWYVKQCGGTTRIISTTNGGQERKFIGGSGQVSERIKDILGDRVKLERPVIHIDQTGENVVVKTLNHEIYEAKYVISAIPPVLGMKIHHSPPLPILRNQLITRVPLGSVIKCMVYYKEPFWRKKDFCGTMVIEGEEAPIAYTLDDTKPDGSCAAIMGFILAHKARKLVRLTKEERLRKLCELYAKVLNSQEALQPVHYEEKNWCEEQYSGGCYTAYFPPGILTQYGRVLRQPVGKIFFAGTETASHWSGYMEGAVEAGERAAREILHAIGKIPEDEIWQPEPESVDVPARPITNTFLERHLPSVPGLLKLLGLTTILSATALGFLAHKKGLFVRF
Nature of the series: Competitive inhibition of rat MAOB expressed in Pichia pastoris.

In series [3] the target is T2, Amine oxidase [flavin-containing] A (Rattus norvegicus, UniProt P21396).
T2 sequence (P21396 whole entry): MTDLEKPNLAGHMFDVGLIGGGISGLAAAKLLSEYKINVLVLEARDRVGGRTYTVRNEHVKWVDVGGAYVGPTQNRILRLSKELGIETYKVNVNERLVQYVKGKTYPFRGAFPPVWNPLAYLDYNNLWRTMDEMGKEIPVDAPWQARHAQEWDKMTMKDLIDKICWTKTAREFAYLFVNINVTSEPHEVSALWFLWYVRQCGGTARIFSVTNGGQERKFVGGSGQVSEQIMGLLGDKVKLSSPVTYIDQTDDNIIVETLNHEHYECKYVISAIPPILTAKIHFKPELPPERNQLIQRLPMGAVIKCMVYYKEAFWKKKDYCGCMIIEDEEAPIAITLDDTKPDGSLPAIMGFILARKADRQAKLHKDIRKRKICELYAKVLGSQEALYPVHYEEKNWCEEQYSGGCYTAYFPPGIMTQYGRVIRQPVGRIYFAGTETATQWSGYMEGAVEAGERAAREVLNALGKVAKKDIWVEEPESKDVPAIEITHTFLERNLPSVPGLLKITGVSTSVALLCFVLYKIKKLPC
In words: Inhibition of rat MAOA expressed in Pichia pastoris at 100 uM.

For series [4], the target named is T3, Amine oxidase [flavin-containing] A (Homo sapiens, UniProt P21397).
T3 sequence (P21397 whole entry): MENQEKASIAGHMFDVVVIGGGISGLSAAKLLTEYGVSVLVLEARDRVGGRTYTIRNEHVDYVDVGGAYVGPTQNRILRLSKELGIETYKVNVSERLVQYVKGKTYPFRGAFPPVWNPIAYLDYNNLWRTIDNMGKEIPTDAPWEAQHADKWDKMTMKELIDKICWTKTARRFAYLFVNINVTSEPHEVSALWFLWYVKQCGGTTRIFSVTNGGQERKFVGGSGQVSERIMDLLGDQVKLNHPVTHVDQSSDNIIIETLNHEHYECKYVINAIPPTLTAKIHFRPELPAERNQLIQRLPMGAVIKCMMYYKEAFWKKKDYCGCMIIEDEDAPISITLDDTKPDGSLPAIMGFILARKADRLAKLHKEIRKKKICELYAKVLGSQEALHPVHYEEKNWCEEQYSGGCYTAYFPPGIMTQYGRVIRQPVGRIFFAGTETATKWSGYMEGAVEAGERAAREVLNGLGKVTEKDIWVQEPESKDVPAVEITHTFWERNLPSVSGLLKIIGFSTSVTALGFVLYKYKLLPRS
Nature of the series: Inhibition of human MAOA expressed in Pichia pastoris at 100 uM.

The target of series [5] is T2, Amine oxidase [flavin-containing] A. In words: Competitive inhibition of rat MAOA expressed in Pichia pastoris.
For series [6], the target named is T3, Amine oxidase [flavin-containing] A. Nature of the series: Competitive inhibition of human MAOA expressed in Pichia pastoris.
The target of series [7] is T4, Amine oxidase [flavin-containing] B (Homo sapiens, UniProt P27338).
T4 sequence (P27338 whole entry): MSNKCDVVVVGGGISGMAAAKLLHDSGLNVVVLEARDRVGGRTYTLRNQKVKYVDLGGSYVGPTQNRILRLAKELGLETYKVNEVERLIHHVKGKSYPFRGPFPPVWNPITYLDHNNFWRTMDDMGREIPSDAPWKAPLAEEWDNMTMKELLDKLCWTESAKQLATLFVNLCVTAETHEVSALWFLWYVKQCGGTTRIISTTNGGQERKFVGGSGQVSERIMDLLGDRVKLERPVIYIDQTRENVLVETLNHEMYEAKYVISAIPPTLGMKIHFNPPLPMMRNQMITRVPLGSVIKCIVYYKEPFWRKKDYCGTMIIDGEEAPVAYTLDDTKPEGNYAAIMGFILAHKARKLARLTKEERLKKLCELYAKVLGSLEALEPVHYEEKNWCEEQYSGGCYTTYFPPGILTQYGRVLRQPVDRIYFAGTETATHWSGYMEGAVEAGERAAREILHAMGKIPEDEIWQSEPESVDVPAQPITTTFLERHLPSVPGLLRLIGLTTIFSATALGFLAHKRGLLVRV
Nature of the series: Competitive inhibition of human MAOB expressed in Pichia pastoris.

For series [8], the target named is T4, Amine oxidase [flavin-containing] B. In words: Uncompetitive inhibition of human MAOB expressed in Pichia pastoris.
The target in series [9] is T1, Amine oxidase [flavin-containing] B. Nature of the series: Uncompetitive inhibition of rat MAOB expressed in Pichia pastoris.
Series [10] addresses T2, Amine oxidase [flavin-containing] A. Nature of the series: Uncompetitive inhibition of rat MAOA expressed in Pichia pastoris.
For series [11], the target named is T3, Amine oxidase [flavin-containing] A. In words: Uncompetitive inhibition of human MAOA expressed in Pichia pastoris.

By Ki is commonly meant a dissociation constant, usually derived from enzyme kinetics or from competition with a known ligand. Higher therefore signals lower affinity. `CCc1ccc(CCOc2ccc(CC3SC(=O)NC3=O)cc2)nc1` (racemic) [PIOGLITAZONE]: the inhibition entry in series [1] was “inactive”. For the same molecule, the affinity in [2] corresponds to a Ki of 2.1 µM. The “inhibition (INH)” value in series [3] and in [4] was “Not Active” in each case.

Take `CN(CCOc1ccc(CC2SC(=O)NC2=O)cc1)c1ccccn1` (racemic) [ROSIGLITAZONE]: the inhibition entry in series [1] is “inactive”. Besides, the inhibition constant (Ki) in [2] is 5.8 µM; in [5], 32.6 µM; in series [6], 27.6 µM; in [7], 4.2 µM.

In the case of `Cc1c(C)c2c(c(C)c1O)CCC(C)(COc1ccc(CC3SC(=O)NC3=O)cc1)O2` (centres undefined) [TROGLITAZONE], the inhibition entry in series [1] is “inactive”. Also, the Ki in series [8] was determined as 9.5 µM; in series [9], 10.9 µM; in series [10], 4.8 µM; in [11], 10.5 µM.
